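How tested: cells in 96-well plates exposed to compound for 48 hours at five concentrations. GI50: concentration for 50% inhibition of growth.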 Calls of active or inactive are those of the source. Cut-off read from the data, not from the text of the source: active = GI50 up to about 1.1 µM and inactive = higher.
Columns and labels:
Experiment in all cases: NCI-60 cell line screen, 48 h
786-0 = test system: 786-0
NCI-H226 = test system: NCI-H226
SF-295 = test system: SF-295
Malme-3M = test system: Malme-3M
LOX IMVI = test system: LOX IMVI
OVCAR-4 = test system: OVCAR-4
SK-MEL-28 = test system: SK-MEL-28
CCRF-CEM = test system: CCRF-CEM
M14 = test system: M14
NCI-H23 = test system: NCI-H23
MCF7 = test system: MCF7
SNB-75 = test system: SNB-75
UACC-62 = test system: UACC-62
OVCAR-8 = test system: OVCAR-8
NCI-H460 = test system: NCI-H460
SN12C = test system: SN12C
NCI-H522 = test system: NCI-H522
U-251 = test system: U-251
CAKI-1 = test system: CAKI-1
MDA-MB-231 = test system: MDA-MB-231
HCT-15 = test system: HCT-15
RPMI-8226 = test system: RPMI-8226
UO-31 = test system: UO-31
COLO 205 = test system: COLO 205
PC-3 = test system: PC-3
SK-OV-3 = test system: SK-OV-3
OVCAR-3 = test system: OVCAR-3
HL-60 = test system: HL-60
OVCAR-5 = test system: OVCAR-5
SF-268 = test system: SF-268
ACHN = test system: ACHN
Hs-578T = test system: Hs-578T
KM12 = test system: KM12
SNB-19 = test system: SNB-19
MDA-MB-435 = test system: MDA-MB-435
HOP-92 = test system: HOP-92
SF-539 = test system: SF-539
EKVX = test system: EKVX
SW-620 = test system: SW-620
A498 = test system: A498
A549 = test system: A549
RXF 393 = test system: RXF 393
IGROV-1 = test system: IGROV-1
NCI/ADR-RES = test system: NCI/ADR-RES
MOLT-4 = test system: MOLT-4
T47D = test system: T47D
DU-145 = test system: DU-145
TK-10 = test system: TK-10
UACC-257 = test system: UACC-257
HT-29 = test system: HT-29
HOP-62 = test system: HOP-62
SR = test system: SR
K562 = test system: K562
BT-549 = test system: BT-549
HCT-116 = test system: HCT-116
SK-MEL-2 = test system: SK-MEL-2
SK-MEL-5 = test system: SK-MEL-5
HCC 2998 = test system: HCC 2998

O=C(NS(=O)(=O)OCC(Cl)(Cl)Cl)SCCC(F)(F)C(F)(F)C(F)(F)C(F)(F)C(F)(F)C(F)(F)F
GI50 (786-0): 35.6 µM (inactive)
GI50 (NCI-H226): 25.9 µM (inactive)
GI50 (SF-295): 20.2 µM (inactive)
GI50 (Malme-3M): 17.9 µM (inactive)
GI50 (LOX IMVI): 22.5 µM (inactive)
GI50 (OVCAR-4): 16.4 µM (inactive)
GI50 (SK-MEL-28): 22.7 µM (inactive)
GI50 (CCRF-CEM): 22.8 µM (inactive)
GI50 (M14): 23.1 µM (inactive)
GI50 (NCI-H23): 20.1 µM (inactive)
GI50 (MCF7): 20 µM (inactive)
GI50 (SNB-75): 23.1 µM (inactive)
GI50 (UACC-62): 18.8 µM (inactive)
GI50 (OVCAR-8): 51.3 µM (inactive)
GI50 (NCI-H460): 19.6 µM (inactive)
GI50 (SN12C): 32.4 µM (inactive)
GI50 (NCI-H522): 20 µM (inactive)
GI50 (U-251): 23.6 µM (inactive)
GI50 (CAKI-1): 30.5 µM (inactive)
GI50 (MDA-MB-231): 25.4 µM (inactive)
GI50 (HCT-15): 20.9 µM
GI50 (RPMI-8226): 18.5 µM (inactive)
GI50 (UO-31): 38 µM (inactive)
GI50 (COLO 205): 17.9 µM (inactive)
GI50 (PC-3): 16.5 µM (inactive)
GI50 (SK-OV-3): 17.7 µM (inactive)
GI50 (OVCAR-3): 24.9 µM (inactive)
GI50 (HL-60): 23.1 µM (inactive)
GI50 (OVCAR-5): 18.6 µM (inactive)
GI50 (SF-268): 40.4 µM (inactive)
GI50 (ACHN): 40.9 µM (inactive)
GI50 (Hs-578T): 19 µM (inactive)
GI50 (KM12): 19.9 µM (inactive)
GI50 (SNB-19): 17.9 µM (inactive)
GI50 (MDA-MB-435): 23.8 µM (inactive)
GI50 (HOP-92): 10.4 µM (inactive)
GI50 (SF-539): 16.8 µM (inactive)
GI50 (EKVX): 18.3 µM (inactive)
GI50 (SW-620): 20.2 µM (inactive)
GI50 (A498): 31 µM (inactive)
GI50 (A549): 30.2 µM (inactive)
GI50 (RXF 393): 22.5 µM (inactive)
GI50 (IGROV-1): 37.4 µM (inactive)
GI50 (NCI/ADR-RES): 20.2 µM (inactive)
GI50 (MOLT-4): 29 µM (inactive)
GI50 (T47D): 27.9 µM (inactive)
GI50 (DU-145): 46.9 µM (inactive)
GI50 (TK-10): 29.5 µM (inactive)
GI50 (UACC-257): 35.5 µM (inactive)
GI50 (HT-29): 18.8 µM (inactive)
GI50 (HOP-62): 28.2 µM (inactive)
GI50 (SR): 32.7 µM (inactive)
GI50 (K562): 28.6 µM (inactive)
GI50 (BT-549): 49 µM (inactive)
GI50 (HCT-116): 19.8 µM (inactive)
GI50 (SK-MEL-2): 25.3 µM (inactive)

O=C(Nc1nc2c(=O)[nH]cnc2s1)c1ccccc1
GI50 (786-0): > 100 µM (inactive)
GI50 (NCI-H226): > 100 µM (inactive)
GI50 (SF-295): > 100 µM (inactive)
GI50 (Malme-3M): > 100 µM (inactive)
GI50 (LOX IMVI): 64 µM (inactive)
GI50 (SK-MEL-5): > 100 µM (inactive)
GI50 (OVCAR-4): > 100 µM (inactive)
GI50 (SK-MEL-28): > 100 µM (inactive)
GI50 (CCRF-CEM): > 100 µM (inactive)
GI50 (NCI-H23): > 100 µM (inactive)
GI50 (MCF7): 45.6 µM (inactive)
GI50 (SNB-75): 44.2 µM (inactive)
GI50 (UACC-62): > 100 µM (inactive)
GI50 (OVCAR-8): > 100 µM (inactive)
GI50 (NCI-H460): 41.5 µM (inactive)
GI50 (SN12C): > 100 µM (inactive)
GI50 (NCI-H522): > 100 µM (inactive)
GI50 (U-251): > 100 µM (inactive)
GI50 (CAKI-1): 43.6 µM (inactive)
GI50 (HCT-15): > 100 µM
GI50 (HCC 2998): > 100 µM (inactive)
GI50 (UO-31): 97.9 µM (inactive)
GI50 (COLO 205): > 100 µM (inactive)
GI50 (PC-3): > 100 µM (inactive)
GI50 (SK-OV-3): > 100 µM (inactive)
GI50 (OVCAR-3): > 100 µM (inactive)
GI50 (HL-60): 53.8 µM (inactive)
GI50 (OVCAR-5): > 100 µM (inactive)
GI50 (SF-268): > 100 µM (inactive)
GI50 (ACHN): 91 µM (inactive)
GI50 (Hs-578T): 61.5 µM (inactive)
GI50 (SNB-19): > 100 µM (inactive)
GI50 (MDA-MB-435): 88.5 µM (inactive)
GI50 (HOP-92): 49.1 µM (inactive)
GI50 (SF-539): > 100 µM (inactive)
GI50 (EKVX): > 100 µM (inactive)
GI50 (SW-620): > 100 µM (inactive)
GI50 (A498): 83.4 µM (inactive)
GI50 (A549): 81.7 µM (inactive)
GI50 (RXF 393): 55.7 µM (inactive)
GI50 (IGROV-1): 71.8 µM (inactive)
GI50 (NCI/ADR-RES): > 100 µM (inactive)
GI50 (DU-145): 73.1 µM (inactive)
GI50 (TK-10): 68.9 µM (inactive)
GI50 (UACC-257): > 100 µM (inactive)
GI50 (HT-29): 50.4 µM (inactive)
GI50 (HOP-62): > 100 µM (inactive)
GI50 (SR): 0.315 µM (active)
GI50 (K562): 62.5 µM (inactive)
GI50 (BT-549): > 100 µM (inactive)
GI50 (HCT-116): > 100 µM (inactive)
GI50 (SK-MEL-2): > 100 µM (inactive)

From ChEMBL document CHEMBL1201862, “PubChem BioAssay data set” (2004)
